Laboratory results: PubChem BioAssay AID1963853 (Molecular Pharmacology Branch, DTP, NCI, 2024)

Tested on: 266295-075-R-J1-PDC spheroid viability
Assay: Anticancer human tumor 266295-075-R-J1-PDC patient-derived head and neck squamous carcinoma cell line growth inhibition [POLQ]
Conditions: spheroids with HUVEC and MSC; for IC50: curve of first compound; for viability, T/C: stronger effect = lower value; active = viability on the fitted dose curve at most 10% of control; inactive = the rest
Experimental: Multicellular complex tumor spheroid response to Polymerase (POL) inhibitors (novobiocin, ART-558, RP6685) in combination with a variety of drugs and investigational agents in selected tumor cell lines
The POL inhibitors (novobiocin, ART-558, and RP6685) were evaluated both individually and in combination with standard of care and investigational anticancer small molecules within a complex spheroid model of solid tumors. . Complex spheroids include a stromal component modeled by human endothelial cells (HUVEC) and fibroblasts modeled by human mesenchymal stem cells (MSCs). The concentration ranges selected for each drug and investigational agent were based upon clinically achievable concentrations if the clinical Cmax of the agent was known.
Compounds. The drugs and investigational agents: novobiocin (NSC847541), ART-558 (NSC835418), RP-6685 (NSC848927), peposertib (NSC802822), ceralasertib (NSC780249), elimusertib (NSC800525), camonsertib (NSC841442), AZD-1390 (NSC803789), olaparib (NSC753686), talazoparib (NSC767125), rucaparib (NSC756644), sotorasib (NSC818433), MRTX-1133 (NSC836407), SN-38 (NSC673596), topotecan (NSC609699), epotoside (NSC141540), doxorubicin (NSC123127), gemcitabine (NSC613327), 5-fluorouracil (NSC19893), paclitaxel (NSC125973), vemurafenib (NSC761431), MSA-2 (NSC828583), SN-011 (NSC837082), adavosertib (NSC754352), prexasertib (NSC758257), carboplatin (NSC241240) and oxaliplatin (NSC266046), were obtained from the National Cancer Institute (NCI) Developmental Therapeutics Program Chemical Repository (21). The FDA-approved anticancer drug set is available from the Developmental Therapeutics Program at https://dtp.cancer.gov/organization/dscb/obtaining/. […] The stock solutions were prepared in dimethyl sulfoxide (DMSO, Sigma-Aldrich, St. Louis, MO, cat. D2650), except for the platinum compounds which were prepared in saline (Quality Biological, Gaithersburg, MD, cat. 114-055-101), at 800-fold the tested concentration and stored at -70 degrees C prior to their use. All drugs and investigational agents were tested over a range starting from a high concentration at or near the clinical Cmax and decreasing in half-log increments. If the clinical Cmax for an agent had not been determined, the highest concentration tested was 10 microM, except for SN-38, which was tested at a high concentration of 1 microM.
Cell Culture. All cells were maintained in an incubator at 37 degrees C and 5% CO2 with 95% humidity. The PDC lines were cultured according to standard operating procedures established by the NCI PDMR (https://pdmr.cancer.gov). Table 3 of the manuscript, lists the cell lines along with the number of the three cell types plated to form the mct-spheroids and media for tumor cell growth. After thawing, all PDC lines, except 997537-175-T-J1-PDC and 415267-285-R-J2-PDC, were cultured in Matrigel-coated flasks prepared with a working solution of 1X Ham's F-12 nutrient mix, without supplementation (Thermo Fisher Scientific, cat. 11765054), 100 U/mL penicillin-streptomycin (Thermo Fisher Scientific, cat. 15140122), and 2.5% Matrigel (Corning Inc., Corning, NY, cat. 354248) for the first three passages. The two PDC lines 997537-175-T-J1-PDC and 415267-285-R-J2-PDC were cultured on uncoated flasks. The 857933-349-R-J2-PDC line was cultured in 6C/Colon 1B media containing advanced DMEM/F-12 (Thermo Fisher Scientific, cat. 12634028), 10 mM HEPES (Thermo Fisher Scientific, cat. 15630080), 1X GlutaMAX supplement (Thermo Fisher Scientific, cat. 35050061), 0.1 mg/mL primocin (InvivoGen, San Diego, CA, cat. ant-pm-2), 10% defined fetal bovine serum, heat inactivated (HyClone Laboratories Inc., Logan, UT, cat. SH30070.03HI), 50% L-WRN conditioned media (ATCC, cat. CRL-3276), 1.25 mM N-Acetyl-L-cysteine (Sigma-Aldrich, cat. A9165), 10 mM nicotinamide (Sigma-Aldrich, cat. N0636), 1X B-27 supplement (Thermo Fisher Scientific, cat. 17504044), 1X N-2 supplement (Thermo Fisher Scientific, cat. […]

[1] = second compound 0.0316 µM, first compound 0.0316 µM
[2] = second compound 0.0316 µM, first compound 0.1 µM
[3] = second compound 0.0316 µM, first compound 0.316 µM
[4] = second compound 0.0316 µM, first compound 1 µM
[5] = second compound 0.1 µM, first compound 0.0316 µM
[6] = second compound 0.1 µM, first compound 0.1 µM
[7] = second compound 0.1 µM, first compound 0.316 µM
[8] = second compound 0.1 µM, first compound 1 µM
[9] = second compound 0.316 µM, first compound 0.0316 µM
[10] = second compound 0.316 µM, first compound 0.1 µM
[11] = second compound 0.316 µM, first compound 0.316 µM
[12] = second compound 0.316 µM, first compound 1 µM
[13] = second compound 1 µM, first compound 0.0316 µM
[14] = second compound 1 µM, first compound 0.1 µM
[15] = second compound 1 µM, first compound 0.316 µM
[16] = second compound 1 µM, first compound 1 µM
[17] = second compound 3.16 µM, first compound 0.0316 µM
[18] = second compound 3.16 µM, first compound 0.1 µM
[19] = second compound 3.16 µM, first compound 0.316 µM
[20] = second compound 3.16 µM, first compound 1 µM
[21] = second compound 10 µM, first compound 0.0316 µM
[22] = second compound 10 µM, first compound 0.1 µM
[23] = second compound 10 µM, first compound 0.316 µM
[24] = second compound 10 µM, first compound 1 µM
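Also: spheroids exposed to compounds for seven days before readout.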

CCc1c2c(nc3ccc(O)cc13)-c1cc3c(c(=O)n1C2)COC(=O)[C@]3(O)CC + Nc1ccc(C#CCN(C(=O)Cc2ncc(C(F)(F)F)cc2C(F)(F)F)c2ccc(F)cc2)nn1
> 1 µM: IC50 (second compound 0.0316 µM) | IC50 (second compound 0.1 µM) | IC50 (second compound 0.316 µM) | IC50 (second compound 1 µM) | IC50 (second compound 3.16 µM) | IC50 (second compound 10 µM)
inactive: viability, T/C (second compound 0.0316 µM, first compound 0.00316 µM) 86.6% | viability, T/C (second compound 0.0316 µM, first compound 0.01 µM) 96% | viability, T/C [1] 84.6% | viability, T/C [2] 97.7% | viability, T/C [3] 106% | viability, T/C [4] 81% | viability, T/C (second compound 0.1 µM, first compound 0.00316 µM) 103% | viability, T/C (second compound 0.1 µM, first compound 0.01 µM) 80.7% | viability, T/C [5] 76.9% | viability, T/C [6] 102% | viability, T/C [7] 96.2% | viability, T/C [8] 75.4% | viability, T/C (second compound 0.316 µM, first compound 0.00316 µM) 98.6% | viability, T/C (second compound 0.316 µM, first compound 0.01 µM) 83.1% | viability, T/C [9] 80.2% | viability, T/C [10] 101% | viability, T/C [11] 117% | viability, T/C [12] 73.5% | viability, T/C (second compound 1 µM, first compound 0.00316 µM) 106% | viability, T/C (second compound 1 µM, first compound 0.01 µM) 82.7% | viability, T/C [13] 81.9% | viability, T/C [14] 85.8% | viability, T/C [15] 101% | viability, T/C [16] 63.4% | viability, T/C (second compound 3.16 µM, first compound 0.00316 µM) 108% | viability, T/C (second compound 3.16 µM, first compound 0.01 µM) 96.8% | viability, T/C [17] 96.1% | viability, T/C [18] 109% | viability, T/C [19] 99.5% | viability, T/C [20] 65% | viability, T/C (second compound 10 µM, first compound 0.00316 µM) 100% | viability, T/C (second compound 10 µM, first compound 0.01 µM) 97.1% | viability, T/C [21] 83.2% | viability, T/C [22] 81.5% | viability, T/C [23] 117% | viability, T/C [24] 70.4%

O=c1[nH]cc(F)c(=O)[nH]1 + Nc1ccc(C#CCN(C(=O)Cc2ncc(C(F)(F)F)cc2C(F)(F)F)c2ccc(F)cc2)nn1
> 10 µM: IC50 (second compound 0.0316 µM) | IC50 (second compound 0.1 µM) | IC50 (second compound 0.316 µM) | IC50 (second compound 1 µM) | IC50 (second compound 3.16 µM) | IC50 (second compound 10 µM)
inactive: viability, T/C [1] 107% | viability, T/C [2] 101% | viability, T/C [3] 104% | viability, T/C [4] 109% | viability, T/C (second compound 0.0316 µM, first compound 3.16 µM) 102% | viability, T/C (second compound 0.0316 µM, first compound 10 µM) 99.5% | viability, T/C [5] 85.5% | viability, T/C [6] 116% | viability, T/C [7] 84.7% | viability, T/C [8] 98% | viability, T/C (second compound 0.1 µM, first compound 3.16 µM) 109% | viability, T/C (second compound 0.1 µM, first compound 10 µM) 80.2% | viability, T/C [9] 102% | viability, T/C [10] 96.5% | viability, T/C [11] 83% | viability, T/C [12] 89.6% | viability, T/C (second compound 0.316 µM, first compound 3.16 µM) 108% | viability, T/C (second compound 0.316 µM, first compound 10 µM) 76% | viability, T/C [13] 105% | viability, T/C [14] 85.7% | viability, T/C [15] 95.6% | viability, T/C [16] 120% | viability, T/C (second compound 1 µM, first compound 3.16 µM) 86% | viability, T/C (second compound 1 µM, first compound 10 µM) 79.8% | viability, T/C [17] 99.9% | viability, T/C [18] 131% | viability, T/C [19] 101% | viability, T/C [20] 89.3% | viability, T/C (second compound 3.16 µM, first compound 3.16 µM) 99.1% | viability, T/C (second compound 3.16 µM, first compound 10 µM) 86.9% | viability, T/C [21] 113% | viability, T/C [22] 103% | viability, T/C [23] 95.8% | viability, T/C [24] 96.3% | viability, T/C (second compound 10 µM, first compound 3.16 µM) 88% | viability, T/C (second compound 10 µM, first compound 10 µM) 87.1%
